Experimental data as given in patent US6486143B2, “6-amino- or 6-hydrazino-sulphonyl-3-quinolynyl-phosphonic acid compounds” (Les Laboratoires Servier, priority 2000, dated 2002).

`O=c1[nH]c2cc(C(F)(F)F)c(S(=O)(=O)N3CCCCC3)cc2cc1P(=O)(O)O` [Example 32, 2-Oxo-6-(1-piperidylsulphonyl)-7-(trifluoromethyl)-1,2-dihydro-3-quinolylphosphonic Acid] gave a melting point greater than 260 °C.
